Reference: ChEMBL document CHEMBL4507264, “Data for DCP probe BAY-7598” (2021)

Key:
Details in all cases: Compound concentration 1000.0 nM
[1] = biological target: Serine/threonine-protein kinase 24 (Homo sapiens) (UniProt Q9Y6E0)
[2] = biological target: Ribosomal protein S6 kinase beta-1 (Homo sapiens) (UniProt P23443)
[3] = biological target: Activin receptor type-1B (Homo sapiens) (UniProt P36896)
[4] = biological target: Tyrosine-protein kinase Fgr (Homo sapiens) (UniProt P09769)
[5] = biological target: Eukaryotic translation initiation factor 2-alpha kinase 1 (Homo sapiens) (UniProt Q9BQI3)
[6] = biological target: MAP kinase-interacting serine/threonine-protein kinase 2 (Homo sapiens) (UniProt Q9HBH9)
[7] = tested on: Epidermal growth factor receptor (Homo sapiens), P00533 [UNDEFINED MUTATION]
[8] = tested on: Tyrosine-protein kinase ABL1 (Homo sapiens), P00519 [Q252H]
[9] = biological target: Death-associated protein kinase 2 (Homo sapiens) (UniProt Q9UIK4)
[10] = biological target: Serine/threonine-protein kinase MRCK beta (Homo sapiens) (UniProt Q9Y5S2)
Sequence of Serine/threonine-protein kinase MRCK beta (Homo sapiens) (Q9Y5S2 whole entry): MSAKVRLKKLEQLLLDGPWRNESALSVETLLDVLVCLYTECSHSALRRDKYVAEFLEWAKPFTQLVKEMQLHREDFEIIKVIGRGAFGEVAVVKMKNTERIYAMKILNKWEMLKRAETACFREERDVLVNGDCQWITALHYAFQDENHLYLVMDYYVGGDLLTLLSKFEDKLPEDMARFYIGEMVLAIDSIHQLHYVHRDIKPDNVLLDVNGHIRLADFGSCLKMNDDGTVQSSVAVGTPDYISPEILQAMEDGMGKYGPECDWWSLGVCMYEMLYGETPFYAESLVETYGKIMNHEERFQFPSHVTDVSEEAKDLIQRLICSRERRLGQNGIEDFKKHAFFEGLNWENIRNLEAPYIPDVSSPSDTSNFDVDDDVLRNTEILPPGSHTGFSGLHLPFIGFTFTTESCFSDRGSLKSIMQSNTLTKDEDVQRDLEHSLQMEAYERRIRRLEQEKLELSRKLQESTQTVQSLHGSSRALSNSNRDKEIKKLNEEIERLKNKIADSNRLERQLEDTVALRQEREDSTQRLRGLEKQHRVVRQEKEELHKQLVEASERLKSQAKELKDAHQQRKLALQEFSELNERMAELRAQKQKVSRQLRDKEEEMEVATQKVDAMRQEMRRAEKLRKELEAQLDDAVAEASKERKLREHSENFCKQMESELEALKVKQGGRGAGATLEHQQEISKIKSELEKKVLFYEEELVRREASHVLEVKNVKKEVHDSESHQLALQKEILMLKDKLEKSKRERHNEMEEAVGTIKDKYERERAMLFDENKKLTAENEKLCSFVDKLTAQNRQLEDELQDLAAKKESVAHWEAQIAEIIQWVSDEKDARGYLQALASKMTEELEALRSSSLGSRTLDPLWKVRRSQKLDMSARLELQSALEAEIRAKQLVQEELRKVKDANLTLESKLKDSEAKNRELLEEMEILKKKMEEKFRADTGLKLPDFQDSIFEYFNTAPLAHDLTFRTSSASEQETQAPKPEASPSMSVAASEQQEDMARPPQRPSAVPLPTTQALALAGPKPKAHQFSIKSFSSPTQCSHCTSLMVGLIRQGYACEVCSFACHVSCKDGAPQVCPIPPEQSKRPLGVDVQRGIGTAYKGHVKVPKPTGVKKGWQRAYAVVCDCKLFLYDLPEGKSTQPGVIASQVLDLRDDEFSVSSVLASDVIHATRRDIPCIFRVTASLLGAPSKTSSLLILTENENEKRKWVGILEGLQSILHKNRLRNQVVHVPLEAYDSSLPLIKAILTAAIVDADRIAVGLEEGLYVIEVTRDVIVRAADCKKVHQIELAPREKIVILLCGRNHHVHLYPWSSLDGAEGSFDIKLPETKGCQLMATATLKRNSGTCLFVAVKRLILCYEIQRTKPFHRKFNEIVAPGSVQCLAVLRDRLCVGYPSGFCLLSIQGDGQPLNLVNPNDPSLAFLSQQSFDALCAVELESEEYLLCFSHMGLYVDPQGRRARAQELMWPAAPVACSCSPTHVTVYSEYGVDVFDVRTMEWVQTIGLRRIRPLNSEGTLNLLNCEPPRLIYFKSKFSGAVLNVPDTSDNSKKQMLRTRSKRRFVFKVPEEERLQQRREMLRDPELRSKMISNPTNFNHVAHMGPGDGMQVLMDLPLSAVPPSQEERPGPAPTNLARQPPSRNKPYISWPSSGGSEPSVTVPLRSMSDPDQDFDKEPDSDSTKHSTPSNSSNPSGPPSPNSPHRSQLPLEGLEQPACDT

[11] = biological target: Myosin-IIIb (Homo sapiens) (UniProt Q8WXR4)
[12] = biological target: Serine/threonine-protein kinase Nek10 (Homo sapiens) (UniProt Q6ZWH5)
[13] = biological target: Serine/threonine-protein kinase PAK 6 (Homo sapiens) (UniProt Q9NQU5)
[14] = tested on: Fibroblast growth factor receptor 3 (Homo sapiens), P22607 [G697C]
[15] = biological target: Transient receptor potential cation channel subfamily M member 6 (Homo sapiens) (UniProt Q9BX84)
[16] = biological target: Tyrosine-protein kinase ABL1 (Homo sapiens) (UniProt P00519)
[17] = biological target: Tyrosine-protein kinase JAK1 (Homo sapiens) (UniProt P23458)
[18] = biological target: Protein kinase C epsilon type (Homo sapiens) (UniProt Q02156)
[19] = biological target: Testis-specific serine/threonine-protein kinase 3 (Homo sapiens) (UniProt Q96PN8)
[20] = biological target: Glycogen synthase kinase-3 beta (Homo sapiens) (UniProt P49841)
[21] = biological target: Serine/threonine-protein kinase Nek4 (Homo sapiens) (UniProt P51957)
[22] = biological target: Phosphatidylinositol 3-kinase C2 domain-containing subunit gamma (Homo sapiens) (UniProt O75747)
[23] = biological target: Mitogen-activated protein kinase kinase kinase kinase 4 (Homo sapiens) (UniProt O95819)
[24] = biological target: Ribosomal protein S6 kinase alpha-2 (Homo sapiens) (UniProt Q15349)
[25] = biological target: Serine/threonine-protein kinase Nek3 (Homo sapiens) (UniProt P51956)
[26] = biological target: Mitogen-activated protein kinase kinase kinase 14 (Homo sapiens) (UniProt Q99558)
Sequence of Mitogen-activated protein kinase kinase kinase 14 (Homo sapiens) (Q99558 whole entry, looked up): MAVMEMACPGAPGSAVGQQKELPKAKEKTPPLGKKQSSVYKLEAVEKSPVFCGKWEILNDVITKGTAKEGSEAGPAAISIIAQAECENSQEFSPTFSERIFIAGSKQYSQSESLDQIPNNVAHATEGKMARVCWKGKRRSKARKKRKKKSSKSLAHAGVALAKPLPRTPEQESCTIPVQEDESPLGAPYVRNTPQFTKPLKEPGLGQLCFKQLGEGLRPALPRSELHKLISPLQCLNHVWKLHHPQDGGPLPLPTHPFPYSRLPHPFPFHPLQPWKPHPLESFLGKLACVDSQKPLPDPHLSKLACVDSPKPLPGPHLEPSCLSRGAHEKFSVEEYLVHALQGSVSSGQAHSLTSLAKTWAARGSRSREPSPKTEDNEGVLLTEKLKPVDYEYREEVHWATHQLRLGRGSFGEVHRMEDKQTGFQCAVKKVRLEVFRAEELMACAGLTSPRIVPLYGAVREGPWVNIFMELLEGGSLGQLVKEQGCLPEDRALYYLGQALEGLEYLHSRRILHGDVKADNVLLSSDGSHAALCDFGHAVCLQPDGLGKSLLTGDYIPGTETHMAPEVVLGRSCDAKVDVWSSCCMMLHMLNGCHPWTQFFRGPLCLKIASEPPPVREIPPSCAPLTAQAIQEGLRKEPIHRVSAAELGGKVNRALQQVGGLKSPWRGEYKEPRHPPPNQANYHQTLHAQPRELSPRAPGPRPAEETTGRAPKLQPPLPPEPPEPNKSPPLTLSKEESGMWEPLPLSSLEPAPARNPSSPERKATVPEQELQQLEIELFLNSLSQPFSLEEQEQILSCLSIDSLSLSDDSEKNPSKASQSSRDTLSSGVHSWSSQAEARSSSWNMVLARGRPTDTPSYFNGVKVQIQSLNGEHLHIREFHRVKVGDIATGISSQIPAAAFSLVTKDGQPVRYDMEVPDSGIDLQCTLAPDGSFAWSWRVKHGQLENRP

[27] = biological target: Mitogen-activated protein kinase 15 (Homo sapiens) (UniProt Q8TD08)
[28] = biological target: Mitogen-activated protein kinase kinase kinase 6 (Homo sapiens) (UniProt O95382)
[29] = biological target: Ephrin type-A receptor 7 (Homo sapiens) (UniProt Q15375)
[30] = biological target: Myotonin-protein kinase (Homo sapiens) (UniProt Q09013)
[31] = biological target: Phosphatidylinositol 4,5-bisphosphate 3-kinase catalytic subunit gamma isoform (Homo sapiens) (UniProt P48736)
[32] = biological target: Dual specificity protein kinase CLK3 (Homo sapiens) (UniProt P49761)
[33] = tested on: Phosphatidylinositol 4,5-bisphosphate 3-kinase catalytic subunit alpha isoform (Homo sapiens), P42336 [H1047L]
[34] = biological target: Serine/threonine-protein kinase N2 (Homo sapiens) (UniProt Q16513)
[35] = biological target: Megakaryocyte-associated tyrosine-protein kinase (Homo sapiens) (UniProt P42679)
Sequence of Megakaryocyte-associated tyrosine-protein kinase (Homo sapiens) (P42679 whole entry): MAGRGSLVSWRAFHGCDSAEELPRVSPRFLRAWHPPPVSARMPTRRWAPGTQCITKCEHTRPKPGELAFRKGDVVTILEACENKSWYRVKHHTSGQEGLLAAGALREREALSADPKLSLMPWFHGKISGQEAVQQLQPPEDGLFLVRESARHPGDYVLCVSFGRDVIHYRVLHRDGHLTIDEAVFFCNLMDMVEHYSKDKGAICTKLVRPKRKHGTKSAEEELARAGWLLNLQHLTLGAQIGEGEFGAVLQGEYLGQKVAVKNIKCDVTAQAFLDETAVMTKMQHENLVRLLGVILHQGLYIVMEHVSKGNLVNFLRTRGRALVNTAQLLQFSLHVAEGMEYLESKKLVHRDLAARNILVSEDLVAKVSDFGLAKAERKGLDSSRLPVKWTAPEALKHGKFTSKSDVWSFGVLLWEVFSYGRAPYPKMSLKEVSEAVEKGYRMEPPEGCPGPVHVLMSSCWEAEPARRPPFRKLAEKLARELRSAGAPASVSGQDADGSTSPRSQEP

[36] = biological target: Testis-specific serine/threonine-protein kinase 1 (Homo sapiens) (UniProt Q9BXA7)
[37] = biological target: Serine/threonine-protein kinase Chk1 (Homo sapiens) (UniProt O14757)
[38] = biological target: Serine/threonine-protein kinase PAK 1 (Homo sapiens) (UniProt Q13153)
[39] = biological target: Fibroblast growth factor receptor 1 (Homo sapiens) (UniProt P11362)
[40] = biological target: Peripheral plasma membrane protein CASK (Homo sapiens) (UniProt O14936)
[41] = biological target: LIM domain kinase 2 (Homo sapiens) (UniProt P53671)
[42] = tested on: Tyrosine-protein kinase ABL1 (Homo sapiens), P00519 [H396P]
[43] = biological target: Rho-associated protein kinase 2 (Homo sapiens) (UniProt O75116)
Sequence of Rho-associated protein kinase 2 (Homo sapiens) (O75116 whole entry, looked up): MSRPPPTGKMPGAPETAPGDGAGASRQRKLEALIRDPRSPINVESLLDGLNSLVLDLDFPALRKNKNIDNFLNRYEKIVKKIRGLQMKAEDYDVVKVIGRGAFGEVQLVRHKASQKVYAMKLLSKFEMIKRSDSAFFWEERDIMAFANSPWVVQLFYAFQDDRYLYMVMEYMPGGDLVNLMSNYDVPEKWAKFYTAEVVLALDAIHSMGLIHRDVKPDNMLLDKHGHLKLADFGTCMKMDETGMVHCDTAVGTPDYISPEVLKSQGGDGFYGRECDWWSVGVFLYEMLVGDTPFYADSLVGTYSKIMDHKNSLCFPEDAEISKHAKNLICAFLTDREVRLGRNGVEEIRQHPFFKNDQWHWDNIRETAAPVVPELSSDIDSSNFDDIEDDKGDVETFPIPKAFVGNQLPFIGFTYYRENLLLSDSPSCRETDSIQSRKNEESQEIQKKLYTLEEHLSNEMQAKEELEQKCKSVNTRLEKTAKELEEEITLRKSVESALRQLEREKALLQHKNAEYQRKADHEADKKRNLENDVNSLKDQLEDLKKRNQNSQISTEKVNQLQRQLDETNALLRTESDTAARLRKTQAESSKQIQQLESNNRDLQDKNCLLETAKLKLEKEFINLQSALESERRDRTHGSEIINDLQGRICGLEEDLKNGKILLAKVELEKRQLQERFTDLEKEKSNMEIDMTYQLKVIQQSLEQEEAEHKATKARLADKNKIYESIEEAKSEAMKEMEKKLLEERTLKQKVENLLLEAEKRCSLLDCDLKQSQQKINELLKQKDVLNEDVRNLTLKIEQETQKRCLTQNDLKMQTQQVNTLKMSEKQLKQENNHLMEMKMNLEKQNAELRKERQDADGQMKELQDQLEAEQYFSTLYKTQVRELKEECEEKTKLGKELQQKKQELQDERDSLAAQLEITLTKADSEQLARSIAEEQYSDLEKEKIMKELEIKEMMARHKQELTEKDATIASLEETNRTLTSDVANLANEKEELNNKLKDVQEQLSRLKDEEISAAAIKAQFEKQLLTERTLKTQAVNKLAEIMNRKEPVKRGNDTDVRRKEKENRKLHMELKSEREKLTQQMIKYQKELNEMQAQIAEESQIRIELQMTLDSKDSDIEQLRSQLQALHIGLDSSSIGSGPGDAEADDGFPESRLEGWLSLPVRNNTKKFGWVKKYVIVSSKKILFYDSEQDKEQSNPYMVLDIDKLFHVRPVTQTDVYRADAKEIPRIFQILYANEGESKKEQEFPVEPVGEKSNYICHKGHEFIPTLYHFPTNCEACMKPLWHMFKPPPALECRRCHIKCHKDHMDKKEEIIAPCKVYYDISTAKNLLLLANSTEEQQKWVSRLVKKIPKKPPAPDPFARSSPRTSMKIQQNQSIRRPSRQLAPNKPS

[44] = tested on: Leucine-rich repeat serine/threonine-protein kinase 2 (Homo sapiens), Q5S007 [G2019S]
[45] = biological target: Serine/threonine-protein kinase NIM1 (Homo sapiens) (UniProt Q8IY84)

Measured: residual activity

Sequence of Tyrosine-protein kinase Fgr (Homo sapiens) (P09769 2-529 limits assumed): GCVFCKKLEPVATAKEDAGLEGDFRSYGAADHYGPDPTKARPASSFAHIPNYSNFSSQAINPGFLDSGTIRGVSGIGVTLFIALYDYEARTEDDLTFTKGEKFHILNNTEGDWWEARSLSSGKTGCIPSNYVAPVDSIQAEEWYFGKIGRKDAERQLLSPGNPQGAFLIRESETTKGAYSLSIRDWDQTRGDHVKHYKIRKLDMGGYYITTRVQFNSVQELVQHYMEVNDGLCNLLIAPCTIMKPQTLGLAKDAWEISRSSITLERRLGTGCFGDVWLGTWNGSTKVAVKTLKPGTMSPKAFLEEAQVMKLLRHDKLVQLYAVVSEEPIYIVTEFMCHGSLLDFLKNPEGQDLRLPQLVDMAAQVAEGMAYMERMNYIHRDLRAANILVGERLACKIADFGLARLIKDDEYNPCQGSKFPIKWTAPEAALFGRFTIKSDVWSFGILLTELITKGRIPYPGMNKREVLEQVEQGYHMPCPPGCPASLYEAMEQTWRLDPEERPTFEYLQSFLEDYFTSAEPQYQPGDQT

O=C(O)[C@@H]1[C@@H](Cn2nnc3ccccc3c2=O)CC[C@H]1C(=O)c1ccc(OCCC2CCOCC2)cc1 [BAY-694]
inactive: [1] 99% | [2] 100% | [3] 100% | [4] 100% | [5] 100% | [6] 99% | [7] 100% | [8] 96% | [9] 100% | [10] 96% | [11] 90% | [12] 88% | [13] 99% | [14] 92% | [15] 96% | [16] 79% | [17] 100% | [18] 100% | [19] 100% | [20] 100% | [21] 56% | [22] 95% | [23] 93% | [24] 96% | [25] 83% | [26] 100% | [27] 100% | [28] 79% | [29] 100% | [30] 100% | [31] 100% | [32] 91% | [33] 84% | [34] 100% | [35] 95% | [36] 100% | [37] 100% | [38] 95% | [39] 100% | [40] 100% | [41] 100% | [42] 84% | [43] 100% | [44] 100% | [45] 73%

O=C(O)[C@H]1[C@H](Cn2nnc3ccccc3c2=O)CC[C@@H]1C(=O)c1ccc(OCCC2CCOCC2)cc1 [BAY-7598]
inactive: [1] 90% | [2] 100% | [3] 74% | [4] 86% | [5] 78% | [6] 83% | [7] 100% | [8] 98% | [9] 100% | [10] 100% | [11] 69% | [12] 69% | [13] 100% | [14] 100% | [15] 100% | [16] 89% | [17] 100% | [18] 100% | [19] 85% | [20] 100% | [21] 84% | [22] 99% | [23] 91% | [24] 90% | [25] 86% | [26] 85% | [27] 100% | [28] 91% | [29] 100% | [30] 83% | [31] 90% | [32] 100% | [33] 71% | [34] 76% | [35] 83% | [36] 73% | [37] 100% | [38] 83% | [39] 98% | [40] 100% | [41] 90% | [42] 100% | [43] 80% | [44] 100% | [45] 93%
